Laboratory results published in EP4183391A1, “PHARMACEUTICAL COMPOSITION AND USE THEREOF” (Shenzhen Salubris Pharmaceuticals Co., Ltd., priority 2020, dated 2022).
Counter-ions that a name gives are not always drawn.

Columns and labels:
[1] = system: male ICR mice; assay: Mouse tail suspension model; format: in vivo; settings: immobility time
Experimental: 110 male ICR mice were accommodated in the experimental environment for 3 days prior to the test, with 10 animals reserved for future use.
According to the experimental design, the mice were randomly grouped according to their body weight at one day before administration.
The time of initiation of administration was defined as 0 min.
The 2 cm tail end of the mouse was attached to a horizontal metal stick so that the mouse was suspended and the immobility time period of the mouse was observed and recorded over a period of 6 min. The last 4 min of immobility time period was recorded by a timer and was used for data analysis.
Excel software was used to collect data. Data were analyzed using Prism (Graphpad software, Inc.) software, in which variance between two groups was analyzed using the t-test method, and one-way ANOVA with additional Dunnett's multiple comparison test was performed among each animal group. p<0.05 is considered as having a significant difference.

[2] = system: male C57BL/6J mice; assay: Relieving a cough in mice, concentrated ammonia steam (Example 5); format: in vivo; settings: 60 min
Experimental: Ammonium Hydroxide, ACS Reagent, 28.0-30.0% NH3, AI LAN (Shanghai) Chemical Technology Co., Ltd., batch no. CEC1070004. Ultrasonic Nebulizer WH-2000, Guangdong Yuehua Medical Equipment Factory Co., Ltd.
88 male C57BL/6J mice, weighing 20-22 g, were purchased from Beijing Vital River Laboratory Animal Technology Co., Ltd.
Mice in each group were administered with 1 dose of the corresponding experimental drugs to be tested in a volume of 10 ml/kg. After 60 min of administration, the mice were placed in an inverted 600 ml beaker filled with concentrated ammonia saturated steam and immediately timed for 10 s, and then the mice were removed and placed in another inverted 600 ml beaker to observe the coughing of the mice and recorded the total coughs within 5 min.
All experimental data are expressed as means. Statistical analysis was carried out using Graphad Prism 5 software. One-way ANOVA test was used for comparison between groups. SNK was used for comparison between groups with equal variance. Dunnett's T3 was used for comparison between groups with unequal variance. P < 0.05 indicated statistical significance.

[3] = Pharmacokinetic experiments in dogs; settings: 14 mg/kg single gavage, Day1, analyte deDM in plasma
Experimental: Reagents: Sodium chloride injection, EDTA-K2, acetonitrile and formic acid were commercially available.
Instrument: AB SCIEX 5500 triple quadrupole mass spectrometer.
18 Beagle dogs, half male and half female, weighing 6 kg-10 kg, were purchased from Jiangsu Yadong Experimental Animal Research Institute Co., Ltd.
After single gavage administration in dogs, about 1 mL of blood was collected with a scalp needle from a vein in the forelimb or hindlimb at 0 min (before administration), 5 min, 15 min, 30 min, 1 h, 2 h, 4 h, 8 h and 24 h in a blood collection tube containing EDTA-K2 anticoagulant and then centrifuged at 4000 rpm for 10 min to separate the plasma which was stored at ≤- 65°C for testing.
The standard curve concentrations of dextromethorphan in plasma were 1 ng/mL, 2 ng/mL, 10 ng/mL, 50 ng/mL, 200 ng/mL, 400 ng/mL, 600 ng/mL and 1000 ng/mL and QC concentrations were 3 ng/mL, 30 ng/mL, 500 ng/mL and 800 ng/mL.

CC(NC(C)(C)C)C(=O)c1cccc(Cl)c1 (stereo not drawn) [Bup, bupropion hydrochloride, reference compound]
Inhibition rate ([1]; 50 mg/kg oral): 56.00%^∗∗

CC(NC(C)(C)C)C(=O)c1cccc(Cl)c1 (stereo not drawn) [Bupropion, 1-(3-chlorophenyl)-2-[(1,1-dimethylethyl)amino]-1-propanone, reference compound]
Cough inhibition rate% ([2]; 30 mg/kg): 9.1%

[2H]C([2H])([2H])Oc1ccc2c(c1)[C@]13CCCC[C@@H]1[C@H](C2)N(C([2H])([2H])[2H])CC3 [Deuterated dextromethorphan]
Cough inhibition rate% ([2]; 3 mg/kg): 11.6%
Cough inhibition rate% ([2]; 12 mg/kg): 22.5%

deuterated dextromethorphan hydrobromide monohydrate [deDM]
Inhibition rate ([1]; 10 mg/kg oral): 5.0%
Inhibition rate ([1]; 12 mg/kg oral): 2.1%
Inhibition rate ([1]; 15 mg/kg oral): 5.9%
Inhibition rate ([1]; 18 mg/kg oral): 4.1%
AUClast ([3]; Female): 153 h^∗ng/ml
Cmax ([3]; Female): 0.06 µg/mL
AUClast ([3]; Male): 383 h^∗ng/ml
Cmax ([3]; Male): 0.157 µg/mL
